This is an account of results in paper PMC2009897, “Comparison of mutagenesis and malignant transformation by dihydrodiols from benz[a]anthracene and 7,12-dimethylbenz[a]anthracene” (British Journal of Cancer, 1979).

Data set [1] relates to V79 Chinese hamster cells. Briefly: Cytotoxicity (plating efficiency) in V79 Chinese hamster cells. It counts as cell-based.
For data set [2], the system named is M2 mouse fibroblasts. Briefly: Plating efficiency of M2 mouse fibroblasts. In kind it is cell-based.
The next data set concerns V79 cells. Details: method as in Slaga et al., 1978. The conditions noted are these: presence of mono-oxygenase systems; ref Slaga et al., 1978; cited from earlier work.
Data set [3] deals with Salmonella typhimurium TA100. The conditions noted are these: cited from earlier work; for Mutagenic activity in Salmonella typhimurium TA100: presence of mono-oxygenase systems, ref Wood et al., 1976; for Microsome-mediated mutagenic activity in S. typhimurium TA100: ref Malaveille et al., 1978.
The test system of the next data set is newborn mice. Details: method as in Wislocki et al., 1976. The conditions noted are these: ref Wislocki et al., 1976; cited from earlier work.
In a further data set the test system is mouse skin. The conditions noted are these: cited from earlier work.
Data set [4] relates to M2 mouse fibroblasts.
For another data set, the system named is C3H/HeJ mice. The conditions noted are these: 106 cells from 2 clones transformed by the compound, 3 mice/clone (6 mice), five weeks after injection.
Data set [5] relates to M2 mouse fibroblasts. The conditions noted are these: cited from earlier work.
The subject of data set [6] is V79 Chinese hamster cells. The conditions noted are these: ref Wood et al. (1977a); cited from earlier work.
In data set [7] the test system is V79 Chinese hamster cells.

“And” between values parts separate entries of the source, which are not always exact repeats. Equal entries are not always repeated. Where two headings read alike, the source gives them in different places.

On to `O[C@@H]1C=Cc2ccc3cc4ccccc4cc3c2[C@H]1O` (relative stereo) [trans-1,2-Dihydro-1,2-dihydroxy BA, trans-1,2-Dihydro-1,2-dihydroxy-BA], for which the “Plating efficiency (%) in V79 cells” value in data set [1] (1.2 µg/ml, 3 h, Table I) is listed as 99%; in [1] (2.5 µg/ml, 3 h, Table I) it was 95%; in [1] (5.0 µg/ml, 3 h, Table I), 89%; in data set [1] (10.0 µg/ml, 3 h, Table I), 55%. Further, the “Plating efficiency (%) in M2 cells” value was determined as 44% in the data set with M2 mouse fibroblasts [2] (1.2 µg/ml, 24 h, Table I); 40% in the data set with M2 mouse fibroblasts [2] (2.5 µg/ml, 24 h, Table I); 37% in the data set with M2 mouse fibroblasts [2] (5.0 µg/ml, 24 h, Table I); 10% with M2 mouse fibroblasts [2] (10.0 µg/ml, 24 h, Table I). Besides, the “Mutagenic activity in V79 cells” value in the data set with V79 cells was “not found to be active”. The “Mutagenic activity in Salmonella typhimurium TA100” value in data set [3] is reported as “not found to be active”.
As to `O[C@@H]1C=Cc2c(ccc3cc4ccccc4cc23)[C@H]1O` (relative stereo) [trans-3,4-Dihydro-3,4-dihydroxy BA, trans-3,4-dihydro-3,4-dihydroxy-BA], the “Plating efficiency (%) in V79 cells” value in [1] (2.5 µg/ml, 3 h, Table I) amounted to 93%; in [1] (5.0 µg/ml, 3 h, Table I), 84%; in data set [1] (10.0 µg/ml, 3 h, Table I), 56%. Besides, the “Plating efficiency (%) in M2 cells” value turned out to be 50% in the data set with M2 mouse fibroblasts [2] (2.5 µg/ml, 24 h, Table I); 38% in the data set with M2 mouse fibroblasts [2] (5.0 µg/ml, 24 h, Table I); 12% in the data set on M2 mouse fibroblasts [2] (10.0 µg/ml, 24 h, Table I). Besides, the “Mutagenic activity in V79 cells” value in the data set on V79 cells was “active”. In addition, the “Inducer of tumours in newborn mice” value in the data set on newborn mice was “highly active”. Besides, in [3], the “Mutagenic activity in Salmonella typhimurium TA100” value is “active”. Further, the “Initiator of tumours on mouse skin” value in the data set on mouse skin (ref Wood et al., 1977b, Slaga et al., 1978) is recorded as “highly active”.
On to `Cc1c2ccccc2c(C)c2c3c(ccc12)[C@@H](O)[C@H](O)C=C3` (relative stereo) [trans-3,4-Dihydro-3,4-dihydroxy-DMBA, trans-3,4-dihydro-3,4-dihydroxy-DMBA], for which the “Plating efficiency (%) in V79 cells” value in data set [1] (0.12 µg/ml, 3 h, Table I) was determined as 67%; in data set [1] (0.25 µg/ml, 3 h, Table I) it was 58%; in data set [1] (0.5 µg/ml, 3 h, Table I) it was 50%; in [1] (1.0 µg/ml, 3 h, Table I) it was 43%. The “Plating efficiency (%) in M2 cells” value with M2 mouse fibroblasts [2] (0.12 µg/ml, 24 h, Table I) is reported as 31%; with M2 mouse fibroblasts [2] (0.25 µg/ml, 24 h, Table I), 26%; with M2 mouse fibroblasts [2] (0.5 µg/ml, 24 h, Table I) it was 25%; in the data set on M2 mouse fibroblasts [2] (1.0 µg/ml, 24 h, Table I), 15%. Moreover, in the data set with M2 mouse fibroblasts [4], the “Induction of malignant transformation in M2 mouse fibroblasts (result in words)” value (shortened to “Induction of malignant transformation”) was “induced mutations in V79 cells and malignant transformation in M2 mouse fibroblasts”. Also, in the data set with M2 mouse fibroblasts [4], the “Malignant transformation in M2 cells compared with the parent hydrocarbon” value is reported as “more active than the parent hydrocarbon”. The “Animals that developed malignant fibrosarcomas” value in the data set on C3H/HeJ mice worked out at 6 animals. Also, the “Microsome-mediated mutagenic activity in S. typhimurium TA100” value in data set [3] is reported as “high”. In the data set with mouse skin (ref I. Chouroulinkov, personal communication), the “Initiator of tumours on mouse skin” value is “acts as an initiator of tumours on mouse skin”.
Consider `O[C@@H]1c2ccccc2-c2cc3ccccc3cc2[C@H]1O` (relative stereo) [trans-5,6-Dihydro-5,6-dihydroxy BA, trans-5,6-Dihydro-5,6-dihydroxy-BA], for which the “Plating efficiency (%) in V79 cells” value in data set [1] (2.5 µg/ml, 3 h, Table I) is recorded as 85%; in data set [1] (5.0 µg/ml, 3 h, Table I), 74%; in [1] (10.0 µg/ml, 3 h, Table I), 59%. In addition, the “Plating efficiency (%) in M2 cells” value in the data set on M2 mouse fibroblasts [2] (2.5 µg/ml, 24 h, Table I) came to 44%; in the data set on M2 mouse fibroblasts [2] (5.0 µg/ml, 24 h, Table I) it was 42%; in the data set on M2 mouse fibroblasts [2] (10.0 µg/ml, 24 h, Table I), 40%.
Consider `Cc1c2c(c(C)c3ccccc13)[C@@H](O)[C@H](O)c1ccccc1-2` (relative stereo) [trans-5,6-Dihydro-5,6-dihydroxy-DMBA, trans-5,6-dihydro-5,6-dihydroxy-DMBA], for which the “Plating efficiency (%) in V79 cells” value in data set [1] (1.0 µg/ml, 3 h, Table I) amounted to 80%; in data set [1] (5.0 µg/ml, 3 h, Table I), 73%; in data set [1] (10.0 µg/ml, 3 h, Table I) it was 57%. In addition, the “Plating efficiency (%) in M2 cells” value turned out to be 28% with M2 mouse fibroblasts [2] (1.0 µg/ml, 24 h, Table I); 28% in the data set on M2 mouse fibroblasts [2] (5.0 µg/ml, 24 h, Table I); 20% in the data set with M2 mouse fibroblasts [2] (10.0 µg/ml, 24 h, Table I). For the same compound, the “Induction of malignant transformation” value with M2 mouse fibroblasts [4] is “inactive in both test systems”. In addition, the “Transformed foci/103 survivors” value with M2 mouse fibroblasts [4] came to 0. In addition, in the data set with M2 mouse fibroblasts [4], the Transformed foci/dishes treated is 0/10.
Turning to `O[C@@H]1C=Cc2cc3c(ccc4ccccc43)cc2[C@H]1O` (relative stereo) [trans-8,9-Dihydro-8,9-dihydroxy-BA, trans-8,9-dihydro-8,9-dihydroxy-BA], the “Plating efficiency (%) in V79 cells” value is reported as 57% in data set [1] (2.5 µg/ml, 3 h, Table I); 54% in data set [1] (5.0 µg/ml, 3 h, Table I); 53% in data set [1] (10.0 µg/ml, 3 h, Table I). Moreover, the “Plating efficiency (%) in M2 cells” value with M2 mouse fibroblasts [2] (2.5 µg/ml, 24 h, Table I) was determined as 44%; with M2 mouse fibroblasts [2] (5.0 µg/ml, 24 h, Table I), 39%; in the data set with M2 mouse fibroblasts [2] (10.0 µg/ml, 24 h, Table I), 30%.
Take `Cc1c2c(c(C)c3c1ccc1ccccc13)C=C[C@@H](O)[C@@H]2O` (relative stereo) [trans-8,9-Dihydro-8,9-dihydroxy-DMBA, trans-8,9-dihydro-8,9-dihydroxy-DMBA]: the “Plating efficiency (%) in V79 cells” value in data set [1] (0.25 µg/ml, 3 h, Table I) is recorded as 62%; in [1] (0.5 µg/ml, 3 h, Table I), 45%; in [1] (1.0 µg/ml, 3 h, Table I), 32%. The “Plating efficiency (%) in M2 cells” value with M2 mouse fibroblasts [2] (0.25 µg/ml, 24 h, Table I) is 26%; in the data set with M2 mouse fibroblasts [2] (0.5 µg/ml, 24 h, Table I) it was 22%; with M2 mouse fibroblasts [2] (1.0 µg/ml, 24 h, Table I), 7%. Also, in the data set with M2 mouse fibroblasts [4], the “Induction of malignant transformation” value is “induced mutations in V79 cells and malignant transformation in M2 mouse fibroblasts”. Also, the “Malignant transformation in M2 cells compared with the parent hydrocarbon” value with M2 mouse fibroblasts [4] was “more active than the parent hydrocarbon”. Further, in the data set with M2 mouse fibroblasts [5], the “Activity in M2 cells (malignant transformation), earlier observations” value is given as “active”. Moreover, the “Microsome-mediated mutagenic activity in S. typhimurium TA100” value in [3] is reported as “some mutagenic activity”.
Turning to `O[C@@H]1C=Cc2cc3ccc4ccccc4c3cc2[C@H]1O` (relative stereo) [trans-10,11-Dihydro-10,11-dihydroxy-BA, trans-10,11-dihydro-10,11-dihydroxy-BA], the “Plating efficiency (%) in M2 cells” value in the data set on M2 mouse fibroblasts [2] (2.5 µg/ml, 24 h, Table I) is reported as 44%; with M2 mouse fibroblasts [2] (5.0 µg/ml, 24 h, Table I), 37%; in the data set on M2 mouse fibroblasts [2] (10.0 µg/ml, 24 h, Table I) it was 29%.
For the compound `Cc1c2c(c(C)c3c1ccc1ccccc13)[C@@H](O)[C@H](O)C=C2` (relative stereo) [trans-10,11-Dihydro-10,11-dihydroxy-DMBA, trans-10,11-dihydro-10,11-dihydroxy-DMBA], the “Plating efficiency (%) in V79 cells” value in data set [1] (0.25 µg/ml, 3 h, Table I) was 76%; in data set [1] (0.5 µg/ml, 3 h, Table I) it was 68%; in data set [1] (1.0 µg/ml, 3 h, Table I), 44%. Moreover, the “Plating efficiency (%) in M2 cells” value in the data set on M2 mouse fibroblasts [2] (0.25 µg/ml, 24 h, Table I) is 30%; in the data set on M2 mouse fibroblasts [2] (0.5 µg/ml, 24 h, Table I), 26%; in the data set on M2 mouse fibroblasts [2] (1.0 µg/ml, 24 h, Table I), 11%. In the data set with M2 mouse fibroblasts [4], the “Induction of malignant transformation” value was “inactive in both test systems”. In addition, the “Transformed foci/103 survivors” value with M2 mouse fibroblasts [4] came to 0.
In the case of `OC1c2cc3ccc4ccccc4c3cc2C2OC2C1O` (single isomer, unassigned) [anti-isomer, benz[a]anthracene 8,9-diol 10,11-oxide], the “Plating efficiency (%) in V79 cells” value in data set [1] (0.6 µg/ml, 3 h, Table II) was found to be 57%; in data set [1] (1.2 µg/ml, 3 h, Table II) it was 48%; in data set [1] (2.5 µg/ml, 3 h, Table II), 41%; in data set [1] (5.0 µg/ml, 3 h, Table II), 35%. Besides, the “Plating efficiency (%) in M2 cells” value was found to be 26% in the data set with M2 mouse fibroblasts [2] (1.2 µg/ml, 24 h, Table II); 12% with M2 mouse fibroblasts [2] (2.5 µg/ml, 24 h, Table II); 6% in the data set on M2 mouse fibroblasts [2] (5.0 µg/ml, 24 h, Table II). Besides, the “Induction of mutations in V79 cells, anti versus syn isomer” value in [6] is on record as “more active than the syn”.
With `OC1c2cc3ccc4ccccc4c3cc2C2OC2C1O` (single isomer, unassigned) [syn-isomer, benz[a]anthracene 8,9-diol 10,11-oxide], the “Plating efficiency (%) in V79 cells” value in [1] (0.6 µg/ml, 3 h, Table II) is on record as 56%; in [1] (1.2 µg/ml, 3 h, Table II) it was 50%; in [1] (2.5 µg/ml, 3 h, Table II), 49%; in data set [1] (5.0 µg/ml, 3 h, Table II), 48%. The “Plating efficiency (%) in M2 cells” value in the data set with M2 mouse fibroblasts [2] (1.2 µg/ml, 24 h, Table II) amounted to 47%; in the data set on M2 mouse fibroblasts [2] (2.5 µg/ml, 24 h, Table II), 49%; in the data set with M2 mouse fibroblasts [2] (5.0 µg/ml, 24 h, Table II), 30%. Moreover, in data set [7], the “Induction of mutations to 8-azaguanine resistance in V79 cells (result in words)” value (from here on “Induction of mutations … (result in words)”) is “mutagenic”. In addition, in the data set on M2 mouse fibroblasts [4], the “Induction of malignant transformation” value was “inactive”.
As to `c1ccc2cc3c(ccc4ccccc43)cc2c1` [BA, benz[a]anthracene], the “Plating efficiency (%) in V79 cells” value in data set [1] was 82% and 70%. Moreover, the “Plating efficiency (%) in M2 cells” value in the data set on M2 mouse fibroblasts [2] is 32% and 29%. Further, the “Induction of mutations … (result in words)” value in [7] is “inactive”.
For `Cc1c2ccccc2c(C)c2c1ccc1ccccc12` [DMBA, 7,12-dimethylbenz[a]anthracene], in data set [1], the “Plating efficiency (%) in V79 cells” value was 63% and 39%. In addition, the “Plating efficiency (%) in M2 cells” value in the data set on M2 mouse fibroblasts [2] was 26% and 24%. Also, the “Induction of mutations … (result in words)” value in [7] is “inactive”. Besides, the “Induction of malignant transformation” value in the data set on M2 mouse fibroblasts [4] is on record as “some activity”.
